For 14 molecules, MIC99 and MBC results are on record in ChEMBL document CHEMBL5385915 (J Med Chem, 2024).

Assay [1] deals with Mycobacterium tuberculosis variant bovis. Nature of the assay: Antimycobacterial activity against Mycobacterium bovis BCG assessed as reduction in microbial growth incubated for 7 days by resazurin dye based assay. The format is functional. The settings on record: 168 h, time 7 day.
The test system is the same in assay [2]. Kind of assay: Bactericidal activity against Mycobacterium bovis BCG assessed as inhibition of bacterial growth incubated for 7 days by resazurin dye based assay. Particulars: 168 h, time 7 day. Type of assay: functional.

≈ marks a conversion by molar mass, not a printed value.

`Brc1ccccc1CN1[C@H](CN2CCCC2)C[C@@H]1c1ccccc1` (racemic): in assay [1], the MIC99 was found to be 65 µM. `Clc1cc(Cl)cc([C@H]2C[C@@H](CN3CCCC3)N2Cc2ccccc2Br)c1` (racemic): in assay [1], the MIC99 was found to be 11 µM.

Consider `COCCNC[C@@H]1C[C@H](c2ccc(OC(F)(F)F)cc2)N1Cc1ccccc1OC(F)(F)F` (racemic), for which the MIC99 in assay [1] is 30 µM. Consider `C#CCNC[C@@H]1C[C@H](c2cc(Br)cc(Br)c2)N1Cc1ccccc1Br` (racemic), for which the MIC99 in assay [1] amounted to 54 µM. Take `CC(C)NC[C@@H]1C[C@H](c2ccccc2)N1Cc1ccccc1OC(F)(F)F` (racemic): the MIC99 in assay [1] came out at 45 µM. Consider `FC(F)(F)c1cc([C@H]2C[C@@H](CN3CCCC3)N2Cc2ccccc2Br)cc(C(F)(F)F)c1` (racemic), for which the minimal bactericidal concentration (MBC) in assay [2] worked out at 12 µM (≈ 6.26 µg/mL). Also, in assay [1], the MIC99 was 22 µM. Consider `CN(C)C[C@@H]1C[C@H](c2cc(Br)cc(Br)c2)N1Cc1ccccc1Br` (racemic), for which the MIC99 in assay [1] is 48 µM. As for `FC(F)(F)Oc1ccc([C@H]2C[C@@H](CN3CCCC3)N2Cc2ccccc2OC(F)(F)F)cc1` (racemic), the minimal bactericidal concentration (MBC) in assay [2] was 12 µM (≈ 5.69 µg/mL). For `COc1ccc([C@H]2C[C@@H](CN3CCCC3)N2Cc2ccccc2Br)cc1` (racemic), in assay [1], the MIC99 amounted to 42.6 µM. In the case of `CC(C)NC[C@@H]1C[C@H](c2ccc(OC(F)(F)F)cc2)N1Cc1ccccc1OC(F)(F)F` (racemic), the MIC99 in assay [1] was determined as 26 µM. Same read-out and setting: to `FC(F)(F)c1ccc(C2CCN(C[C@@H]3C[C@H](c4ccccc4)N3Cc3ccccc3Br)CC2)cc1` (racemic) belongs 60 µM. As for `CC(C)NC[C@@H]1C[C@H](c2ccc(OC(F)(F)F)cc2)N1Cc1ccccc1Br` (racemic), the MIC99 in assay [1] was found to be 24 µM. For the molecule `CC(C)NC[C@@H]1C[C@H](c2ccccc2)N1Cc1ccccc1Br` (racemic), the MIC99 in assay [1] worked out at 51 µM. For `FC(F)(F)Oc1ccc(C2CCN(C[C@@H]3C[C@H](c4ccccc4)N3Cc3ccccc3Br)CC2)cc1` (racemic), the MIC99 in assay [1] was 56 µM.
